Laboratory results from US11226337B2, “Chemoproteomic profiling of protein electrophilic and oxidative post-translational modifications” (Zenagem, LLC, priority 2017, dated 2022).

Columns and labels:
Experiment in all cases: SILAC RP-ABPP
Assay type in all cases: cell-based
[1] = target: T1, SCPEP1 Retinoidinducible serine (Q9HB40) (Homo sapiens, UniProt Q9HB40); details: SILAC H/L
T1 construct: In Situ Labelling of Cells with Hydrazine Probes for MS Experiments; endogenous in cells; host or cells: HEK293T and MDA-MB-231
T1 sequence (Q9HB40 27-452): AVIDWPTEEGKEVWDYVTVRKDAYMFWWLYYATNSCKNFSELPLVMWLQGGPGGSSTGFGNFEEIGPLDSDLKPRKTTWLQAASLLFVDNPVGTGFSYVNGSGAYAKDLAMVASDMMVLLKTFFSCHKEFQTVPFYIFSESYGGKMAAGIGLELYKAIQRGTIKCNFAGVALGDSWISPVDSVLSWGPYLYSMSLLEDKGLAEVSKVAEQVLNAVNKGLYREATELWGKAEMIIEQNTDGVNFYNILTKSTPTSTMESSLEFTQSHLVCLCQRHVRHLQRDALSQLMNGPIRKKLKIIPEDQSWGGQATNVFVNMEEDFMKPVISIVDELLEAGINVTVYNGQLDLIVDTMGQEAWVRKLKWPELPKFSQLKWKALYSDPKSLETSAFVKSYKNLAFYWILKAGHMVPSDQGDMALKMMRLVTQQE
Experimental: (§1) For MS-based experiments, labelling was performed in a similar manner as described above in Example 2, maintaining the same concentrations of probes. Modifications to this protocol included using isotopically ‘light’ and ‘heavy’ SILAC cells that were also grown to near complete confluence prior to treatment. Isotopically light cells were treated with the non-clickable hydrazine probe (at the same concentration as the probe in ‘enrichment’ experiments) or the probe in the presence of 10-fold excess non-clickable hydrazine probe as a competitor (in ‘competition’ experiments). Isotopically heavy cells were treated with the probe for both types of experiments. These treatments were performed in non-SILAC media. Following treatments, cells were washed with cold PBS to remove the probe-containing media, harvested by scraping, collected by centrifugation (1,400 g, 3 min, 4° C.), washed again by resuspension in cold PBS and frozen as pellets at −80° C. until use.
(§2) The fractionated equimolar mixture of heavy and light soluble proteomes (1-1.5 mg) was diluted to 1 mL in PBS. Click reactions were scaled accordingly (except for biotin-azide) to maintain final concentrations of 0.1 mM TBTA, 1 mM CuSO4, 100 μM biotin-azide (10 mM in DMSO) and 1 mM TCEP. The mixture was vortexed and placed on a rotator at ambient temperature for 1 hour. Sequential addition of and mixture with pre-chilled methanol (MeOH, 2 mL), chloroform (CHCl3, 0.5 mL) and PBS (1 mL) on ice quenched the reaction. The precipitated proteome was centrifuged (5,000 g, 10 min, 4° C.) to fractionate the protein interphase from the organic and aqueous solvent layers. The protein pellet was washed with cold 1:1 MeOH:CHCl3 (3×1 mL), mildly sonicated in cold 4:1 MeOH:CHCl3 (2.5 mL) and pelleted once more by centrifugation (5,000 g, 10 min, 4° C.) to ensure click reagents were efficiently removed.
(§3) Heavy and light parent ion chromatograms associated with successfully identified peptides were extracted and compared using CIMAGE software as previously described^69. At least one ion of a co-eluting heavy-light pair must be accurately identified from a fragmentation event that occurred within the retention time window (±10 min) of parent ion elution. To ensure that the correct pair of peaks is quantified, chromatograms are extracted within a 10 ppm error tolerance of the predicted m/z, the signal-to-noise ratio must be >2.5 and the ‘co-elution correlation score’ and ‘envelope correlation score’ must have R^2 values ≥0.8. In addition, peptides detected as ‘singletons,’ where only the heavy ion of a peptide pair was identified, but for which passed all other filtering parameters, are given a default assigned ratio of ‘20,’ which is defined as any measured ratio that is ≥20.
(§4) To further eliminate false positives and any stochastic variability in the data, protein ratios were then determined by the median peptide ratio derived from three or more unique quantified peptides. Protein ratios that complied with these criteria from a single experiment were then averaged with ratios acquired from ≥3 replicates to provide final values for each type of experiment in both cell lines with both probes. […] Most importantly, there are no robustly measured ratios for proteins identified as probe 1 targets that had measured ratios of ˜1 with probe 2. Probe targets in HEK293T and MDA-MB-231 cells represent data combined from ≥3 independent biological replicates with each cell type performed with several independent batches of synthesized probes over a period of almost two years. […]

[2] = target: T2, KEAP1 Kelchlike ECHassociated protein 1 (Q14145) (Homo sapiens, UniProt Q14145); details: SILAC H/L
T2 construct: shared by both the endogenous and recombinant forms of these proteins; endogenous in cells; host or cells: HEK293T and MDA-MB-231
T2 sequence (Q14145 whole entry): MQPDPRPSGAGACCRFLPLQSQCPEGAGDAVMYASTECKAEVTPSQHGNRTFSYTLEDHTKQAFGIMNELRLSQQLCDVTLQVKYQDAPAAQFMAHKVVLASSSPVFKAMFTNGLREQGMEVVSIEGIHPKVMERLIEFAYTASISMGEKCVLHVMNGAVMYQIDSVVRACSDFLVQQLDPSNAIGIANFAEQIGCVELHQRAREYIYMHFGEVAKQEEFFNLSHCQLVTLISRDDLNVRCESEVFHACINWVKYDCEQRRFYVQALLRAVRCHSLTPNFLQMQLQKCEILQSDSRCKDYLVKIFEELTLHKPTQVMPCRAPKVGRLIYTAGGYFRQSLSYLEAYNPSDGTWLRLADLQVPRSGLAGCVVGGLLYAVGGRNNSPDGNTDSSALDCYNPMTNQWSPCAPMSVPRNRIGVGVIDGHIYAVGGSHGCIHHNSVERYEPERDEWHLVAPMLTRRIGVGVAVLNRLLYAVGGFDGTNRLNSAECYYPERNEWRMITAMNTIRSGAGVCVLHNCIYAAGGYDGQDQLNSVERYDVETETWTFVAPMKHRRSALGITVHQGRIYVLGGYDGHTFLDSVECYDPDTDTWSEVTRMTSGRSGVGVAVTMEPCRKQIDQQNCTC
Experimental: as §1, §2, §3, §4

[3] = target: T3, PLD3 Phospholipase D3 (Q8IV08) (Homo sapiens, UniProt Q8IV08); details: SILAC H/L, HEK293T
T3 construct: shared by both the endogenous and recombinant forms of these proteins; endogenous in cells; host or cells: HEK293T and MDA-MB-231
T3 sequence (Q8IV08 1-490): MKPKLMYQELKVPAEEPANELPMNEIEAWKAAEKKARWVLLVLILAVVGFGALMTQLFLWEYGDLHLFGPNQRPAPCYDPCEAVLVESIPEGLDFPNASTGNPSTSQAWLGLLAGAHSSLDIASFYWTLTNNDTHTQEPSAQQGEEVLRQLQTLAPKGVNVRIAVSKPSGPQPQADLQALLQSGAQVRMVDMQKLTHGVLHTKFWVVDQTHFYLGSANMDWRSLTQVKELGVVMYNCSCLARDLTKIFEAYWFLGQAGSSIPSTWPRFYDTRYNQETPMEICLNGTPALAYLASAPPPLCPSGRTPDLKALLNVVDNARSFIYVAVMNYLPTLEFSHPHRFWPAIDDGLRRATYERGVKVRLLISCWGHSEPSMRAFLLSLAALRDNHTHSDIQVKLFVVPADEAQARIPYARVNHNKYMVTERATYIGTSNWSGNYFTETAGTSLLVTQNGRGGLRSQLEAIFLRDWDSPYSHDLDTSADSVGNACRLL
Experimental: as §1, §2, §3, §4

[4] = target: T4, EPDR1 Mammalian ependyminrelated (Q9UM22) (Homo sapiens, UniProt Q9UM22); details: SILAC H/L, MDA-MB-231
T4 construct: shared by both the endogenous and recombinant forms of these proteins; endogenous in cells; host or cells: HEK293T and MDA-MB-231
T4 sequence (Q9UM22 38-224): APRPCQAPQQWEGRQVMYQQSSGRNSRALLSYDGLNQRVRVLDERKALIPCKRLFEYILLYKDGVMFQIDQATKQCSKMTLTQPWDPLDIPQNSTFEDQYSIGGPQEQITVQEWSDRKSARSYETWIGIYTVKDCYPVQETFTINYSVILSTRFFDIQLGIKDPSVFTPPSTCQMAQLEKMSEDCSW
Experimental: as §1, §2, §3, §4

[5] = probe 2 1 mM 0.5 h vs probe 4, MDA-MB-231
[6] = probe 2 vs probe 2+10x probe 4, MDA-MB-231
[7] = probe 1 3 mM 0.5 h vs probe 3, HEK293T
[8] = probe 1 vs probe 1+10x probe 3, HEK293T

enrichment ratioavg [1, 5]	competition ratioavg [1, 6]	enrichment ratioavg [2, 5]	competition ratioavg [2, 6]	enrichment ratioavg ([4]; probe 2 1 mM 0.5 h vs probe 4)	competition ratioavg ([4]; probe 2 vs probe 2+10x probe 4)	Compound	enrichment ratioavg ([3]; probe 2 1 mM 0.5 h vs probe 4)	competition ratioavg ([3]; probe 2 vs probe 2+10x probe 4)	enrichment ratioavg [1, 7]	competition ratioavg [1, 8]	enrichment ratioavg [2, 7]	competition ratioavg [2, 8]	enrichment ratioavg ([3]; probe 1 3 mM 0.5 h vs probe 3)	competition ratioavg ([3]; probe 1 vs probe 1+10x probe 3)	enrichment ratioavg ([4]; probe 1 3 mM 0.5 h vs probe 3)	competition ratioavg ([4]; probe 1 vs probe 1+10x probe 3)
19	4	12	3	20	5	C#CCCNC(=O)c1ccc(NN)cc1.Cl [probe 2, N-(but-3-yn-1-yl)-4-hydrazinylbenzamide hydrochloride]	5	2	–	–	–	–	–	–	–	–
–	–	–	–	–	–	C#CCNN.Cl [probe 1, prop-2-yn-1-ylhydrazine hydrochloride]	–	–	5	2	17	20	12	2	20	20
